Values of other authors as cited in patent US10434198B2, “Radiopharmaceutical solutions with advantageous properties” (Sciencons AS, priority 2015, dated 2019).

Legend:
MDA-MB-231 (SA) = conditions: 250 kBq/kg (3.6×10^11 ^223Ra atoms), Suominen et al. 2013
[1] = 10 minutes after injection

Row | SMILES | survival advantage (MDA-MB-231 (SA)) | reduction of radium in blood [1]
1 | [Cl][223Ra][Cl] [^223Ra, radium-223 dichloride] | 43% | –
2 | [Ra] [radium] | – | 88%
